According to US10160747B2, “Compounds and methods for kinase modulation, and indications therefor” (Plexxikon Inc., priority 2016, dated 2018):

How the values were obtained:
Assay type in all cases: biochemical
[1] = target: T1, FLT3-ITD (Homo sapiens, UniProt P36888); assay: FLT3-ITD recombinant enzyme kinase assay (AlphaScreen); details: 8 pt; read-out: FLT3_ITD 8 pt: IC50
T1 sequence (P36888 1-993): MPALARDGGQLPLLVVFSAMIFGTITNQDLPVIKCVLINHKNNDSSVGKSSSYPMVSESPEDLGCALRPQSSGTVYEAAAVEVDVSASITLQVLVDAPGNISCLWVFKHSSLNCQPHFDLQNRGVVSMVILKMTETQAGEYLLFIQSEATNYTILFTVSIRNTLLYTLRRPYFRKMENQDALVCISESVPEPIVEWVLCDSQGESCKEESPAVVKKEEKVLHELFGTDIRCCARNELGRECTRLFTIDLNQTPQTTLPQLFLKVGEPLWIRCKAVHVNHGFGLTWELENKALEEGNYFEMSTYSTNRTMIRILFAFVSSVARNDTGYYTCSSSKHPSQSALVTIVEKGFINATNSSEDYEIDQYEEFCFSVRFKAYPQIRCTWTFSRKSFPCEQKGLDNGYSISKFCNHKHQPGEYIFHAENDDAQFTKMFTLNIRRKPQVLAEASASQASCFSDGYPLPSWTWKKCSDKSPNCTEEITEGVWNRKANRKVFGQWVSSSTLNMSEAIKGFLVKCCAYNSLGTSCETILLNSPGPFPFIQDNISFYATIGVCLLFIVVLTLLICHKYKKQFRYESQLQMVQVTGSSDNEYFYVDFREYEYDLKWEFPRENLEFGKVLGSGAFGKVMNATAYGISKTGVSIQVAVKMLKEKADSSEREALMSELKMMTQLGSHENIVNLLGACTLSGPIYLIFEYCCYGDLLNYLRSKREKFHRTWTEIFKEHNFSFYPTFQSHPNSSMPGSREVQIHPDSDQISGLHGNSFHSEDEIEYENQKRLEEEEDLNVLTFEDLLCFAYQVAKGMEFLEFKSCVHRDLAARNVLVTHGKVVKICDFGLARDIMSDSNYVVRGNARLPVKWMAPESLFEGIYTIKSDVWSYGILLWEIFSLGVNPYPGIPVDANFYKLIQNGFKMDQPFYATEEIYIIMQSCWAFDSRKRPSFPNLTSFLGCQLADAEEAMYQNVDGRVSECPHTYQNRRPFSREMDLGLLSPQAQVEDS
Procedure, shortened: (§1)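 Kinase activity of recombinant FLT3-ITD, FLT3-D835Y and c-KIT was followed via phosphotyrosine formation on a 30 nM biotin-peptide substrate, captured on streptavidin donor and anti-phosphotyrosine acceptor AlphaScreen beads. ATP was set at 10 μM for FLT3 and 100 μM for c-KIT.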

[2] = target: T2, FLT3-D835Y (Homo sapiens, UniProt P36888, D835Y); assay: FLT3-D835Y recombinant enzyme kinase assay (AlphaScreen); details: 8 pt, GMean
T2 construct: purchased Invitrogen PV3967
T2 sequence (P36888 27-993 D835Y): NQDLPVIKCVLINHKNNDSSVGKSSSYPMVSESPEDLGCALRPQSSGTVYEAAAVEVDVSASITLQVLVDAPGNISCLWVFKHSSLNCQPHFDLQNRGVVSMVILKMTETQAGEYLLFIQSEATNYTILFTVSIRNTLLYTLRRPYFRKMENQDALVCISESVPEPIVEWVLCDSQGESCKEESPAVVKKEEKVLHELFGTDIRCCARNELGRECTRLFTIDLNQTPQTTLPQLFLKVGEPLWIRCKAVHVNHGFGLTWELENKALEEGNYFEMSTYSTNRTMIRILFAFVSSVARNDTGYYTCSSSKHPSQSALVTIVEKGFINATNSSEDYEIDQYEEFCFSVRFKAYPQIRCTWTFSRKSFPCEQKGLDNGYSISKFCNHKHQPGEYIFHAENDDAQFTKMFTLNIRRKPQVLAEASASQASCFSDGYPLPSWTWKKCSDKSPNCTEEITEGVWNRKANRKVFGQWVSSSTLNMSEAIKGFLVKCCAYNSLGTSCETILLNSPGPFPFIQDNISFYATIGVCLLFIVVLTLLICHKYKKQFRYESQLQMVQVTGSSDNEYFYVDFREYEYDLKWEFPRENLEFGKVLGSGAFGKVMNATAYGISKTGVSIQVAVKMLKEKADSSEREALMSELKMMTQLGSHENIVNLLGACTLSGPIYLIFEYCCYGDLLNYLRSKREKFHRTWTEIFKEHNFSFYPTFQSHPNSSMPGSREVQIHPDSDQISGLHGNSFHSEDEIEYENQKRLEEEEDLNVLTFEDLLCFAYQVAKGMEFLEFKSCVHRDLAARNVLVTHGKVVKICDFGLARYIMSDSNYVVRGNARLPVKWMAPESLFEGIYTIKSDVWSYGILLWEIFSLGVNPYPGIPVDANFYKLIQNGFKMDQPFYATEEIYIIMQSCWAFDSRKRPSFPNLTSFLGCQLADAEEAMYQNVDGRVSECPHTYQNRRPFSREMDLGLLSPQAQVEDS
Procedure, shortened: as §1

[3] = target: T3, c-KIT (Homo sapiens, UniProt P10721); assay: c-KIT recombinant enzyme kinase assay (AlphaScreen); details: 100 ATP, 8 pt
T3 construct: purchased Millipore 14-559K
Procedure, shortened: as §1

T3 sequence (P10721 26-976): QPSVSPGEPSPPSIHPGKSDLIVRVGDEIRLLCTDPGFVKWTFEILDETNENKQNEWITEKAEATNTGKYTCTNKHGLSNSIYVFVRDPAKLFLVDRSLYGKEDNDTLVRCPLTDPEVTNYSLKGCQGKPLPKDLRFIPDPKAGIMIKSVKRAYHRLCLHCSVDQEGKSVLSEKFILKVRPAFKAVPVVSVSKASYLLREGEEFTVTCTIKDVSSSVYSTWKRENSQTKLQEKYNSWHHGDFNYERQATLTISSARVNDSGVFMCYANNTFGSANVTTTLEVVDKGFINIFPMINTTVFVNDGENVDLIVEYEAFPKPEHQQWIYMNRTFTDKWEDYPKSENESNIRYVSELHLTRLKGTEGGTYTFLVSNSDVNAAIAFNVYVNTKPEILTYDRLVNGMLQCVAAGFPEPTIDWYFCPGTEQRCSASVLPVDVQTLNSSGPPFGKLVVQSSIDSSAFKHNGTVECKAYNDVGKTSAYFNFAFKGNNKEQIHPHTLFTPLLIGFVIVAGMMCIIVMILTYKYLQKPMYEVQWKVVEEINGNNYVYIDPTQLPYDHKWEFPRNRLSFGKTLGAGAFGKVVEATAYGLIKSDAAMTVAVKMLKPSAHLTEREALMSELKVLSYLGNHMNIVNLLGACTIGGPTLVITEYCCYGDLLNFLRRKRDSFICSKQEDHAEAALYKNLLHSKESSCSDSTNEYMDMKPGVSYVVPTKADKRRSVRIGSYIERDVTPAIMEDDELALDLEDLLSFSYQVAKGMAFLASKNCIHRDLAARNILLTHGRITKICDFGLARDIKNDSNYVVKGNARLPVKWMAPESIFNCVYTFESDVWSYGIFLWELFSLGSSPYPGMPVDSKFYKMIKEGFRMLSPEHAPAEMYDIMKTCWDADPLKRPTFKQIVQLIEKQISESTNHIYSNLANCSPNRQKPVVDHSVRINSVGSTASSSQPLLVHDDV

Row | IC50 [1] | IC50 [2] | IC50 [3] | Structure (SMILES)
1 | 0.0001 to 10 µM | 0.0001 to 10 µM | 0.0001 to 10 µM | COc1ncc(NC(=O)Cc2ccc(-c3cnc(Nc4cn[nH]c4)nc3)cc2F)cc1C(F)(F)F [Compound P-0026, 2-[2-fluoro-4-[2-(1H-pyrazol-4-ylamino)pyrimidin-5-yl]phenyl]-N-[6-methoxy-5-(trifluoromethyl)-3-pyridyl]acetamide]
2 | 0.0001 to 10 µM | 0.0001 to 10 µM | 0.0001 to 10 µM | Cc1ncc(NC(=O)Cc2ccc(-c3cnc(Nc4cn[nH]c4)nc3)cc2F)cc1C(F)(F)F [Compound P-0027, 2-[2-fluoro-4-[2-(1H-pyrazol-4-ylamino)pyrimidin-5-yl]phenyl]-N-[6-methyl-5-(trifluoromethyl)-3-pyridyl]acetamide]
3 | 0.0001 to 10 µM | 0.0001 to 10 µM | 0.0001 to 10 µM | O=C(Cc1ccc(-c2cnc3[nH]cc(C(=O)C4CC4)c3c2)cc1F)Nc1ccnc(C(F)(F)F)c1 [Compound P-0032, 2-[4-[3-(cyclopropanecarbonyl)-1H-pyrrolo[2,3-b]pyridin-5-yl]-2-fluoro-phenyl]-N-[2-(trifluoromethyl)-4-pyridyl]acetamide]
4 | 0.0001 to 10 µM | 0.0001 to 10 µM | 0.0001 to 10 µM | COc1ncc(NC(=O)Cc2ccc(-c3cnc4[nH]cc(Cl)c4n3)cc2F)cc1C(F)(F)F [Compound P-0047, 2-[4-(7-chloro-5H-pyrrolo[2,3-b]pyrazin-2-yl)-2-fluoro-phenyl]-N-[6-methoxy-5-(trifluoromethyl)-3-pyridyl]acetamide]
5 | 0.0001 to 10 µM | 0.0001 to 10 µM | 0.0001 to 10 µM | COc1nn(C[C@H](C)O)cc1Nc1ncc(-c2ccc(CC(=O)Nc3cncc(C(F)(F)F)c3)c(F)c2)cn1 [Compound P-0050, 2-[2-fluoro-4-[2-[[1-[(2S)-2-hydroxypropyl]-3-methoxy-pyrazol-4-yl]amino]pyrimidin-5-yl]phenyl]-N-[5-(trifluoromethyl)-3-pyridyl]acetamide]
6 | 0.0001 to 10 µM | 0.0001 to 10 µM | 0.0001 to 10 µM | COc1ncc(NC(=O)Cc2cc(F)c(-c3cnc4[nH]cc(F)c4c3)cc2F)cc1C(F)(F)F [Compound P-0051, 2-[2,5-difluoro-4-(3-fluoro-1H-pyrrolo[2,3-b]pyridin-5-yl)phenyl]-N-[6-methoxy-5-(trifluoromethyl)-3-pyridyl]acetamide]
7 | 0.0001 to 10 µM | 0.0001 to 10 µM | 0.0001 to 10 µM | Cn1cnc(Nc2ncc(-c3ccc(CC(=O)Nc4cncc(C(F)(F)F)c4)c(F)c3)cn2)c1 [Compound P-0052, 2-[2-fluoro-4-[2-[(1-methylimidazol-4-yl)amino]pyrimidin-5-yl]phenyl]-N-[5-(trifluoromethyl)-3-pyridyl]acetamide]

Further lines, the compound ahead of its results:

Row | Structure (SMILES) | IC50 [1] | IC50 [2] | IC50 [3]
8 | O=C(Cc1ccc(-c2cnc(Nc3cnn(C(F)F)c3)nc2)c(F)c1)Nc1cc(C(F)(F)F)ccn1 [Compound P-0024, 2-[4-[2-[[1-(difluoromethyl)pyrazol-4-yl]amino]pyrimidin-5-yl]-3-fluoro-phenyl]-N-[4-(trifluoromethyl)-2-pyridyl]acetamide] | 0.0001 to 10 µM | 0.0001 to 10 µM | 0.0001 to 10 µM
9 | COc1ncc(NC(=O)Cc2ccc(-c3cnc(Nc4cn[nH]c4)nc3)cc2)cc1C(F)(F)F [Compound P-0025, N-[6-methoxy-5-(trifluoromethyl)-3-pyridyl]-2-[4-[2-(1H-pyrazol-4-ylamino)pyrimidin-5-yl]phenyl]acetamide] | 0.0001 to 10 µM | 0.0001 to 10 µM | 0.0001 to 10 µM
10 | O=C(Cc1ccc(-c2cnc3[nH]cc(F)c3c2)cc1F)Nc1ccnc(C(F)(F)F)c1 [Compound P-0029, 2-[2-fluoro-4-(3-fluoro-1H-pyrrolo[2,3-b]pyridin-5-yl)phenyl]-N-[2-(trifluoromethyl)-4-pyridyl]acetamide] | 0.0001 to 10 µM | 0.0001 to 10 µM | 0.0001 to 10 µM
11 | CC(=O)c1c[nH]c2ncc(-c3ccc(CC(=O)Nc4ccnc(C(F)(F)F)c4)c(F)c3)cc12 [Compound P-0031, 2-(4-(3-acetyl-1H-pyrrolo[2,3-b]pyridin-5-yl)-2-fluorophenyl)-N-(2-(trifluoromethyl)pyridin-4-yl)acetamide] | 0.0001 to 10 µM | 0.0001 to 10 µM | 0.0001 to 10 µM
12 | O=C(Cc1ccc(-c2cnc(Nc3cnn4ccccc34)nc2)cc1F)Nc1ccnc(C(F)(F)F)c1 [Compound P-0033, 2-[2-fluoro-4-[2-(pyrazolo[1,5-a]pyridin-3-ylamino)pyrimidin-5-yl]phenyl]-N-[2-(trifluoromethyl)-4-pyridyl]acetamide] | 0.0001 to 10 µM | 0.0001 to 10 µM | 0.0001 to 10 µM
13 | COc1ncc(NC(=O)Cc2ccc(-c3cnc4[nH]cc(F)c4c3)cc2F)cc1C(F)(F)F [Compound P-0034, 2-[2-fluoro-4-(3-fluoro-1H-pyrrolo[2,3-b]pyridin-5-yl)phenyl]-N-[6-methoxy-5-(trifluoromethyl)-3-pyridyl]acetamide] | 0.0001 to 10 µM | 0.0001 to 10 µM | 0.0001 to 10 µM
14 | COc1ncc(NC(=O)Cc2ccc(-c3cnc4[nH]cc(C(C)=O)c4c3)cc2F)cc1C(F)(F)F [Compound P-0035, 2-[4-(3-acetyl-1H-pyrrolo[2,3-b]pyridin-5-yl)-2-fluoro-phenyl]-N-[6-methoxy-5-(trifluoromethyl)-3-pyridyl]acetamide] | 0.0001 to 10 µM | 0.0001 to 10 µM | 0.0001 to 10 µM
15 | COc1ncc(NC(=O)Cc2ccc(-c3cnc4[nH]cc(C(=O)C5CC5)c4c3)cc2F)cc1C(F)(F)F [Compound P-0036, 2-[4-[3-(cyclopropanecarbonyl)-1H-pyrrolo[2,3-b]pyridin-5-yl]-2-fluoro-phenyl]-N-[6-methoxy-5-(trifluoromethyl)-3-pyridyl]acetamide] | 0.0001 to 10 µM | 0.0001 to 10 µM | 0.0001 to 10 µM
16 | COc1ncc(NC(=O)Cc2ccc(-c3cnc(Nc4cnn5ccccc45)nc3)cc2F)cc1C(F)(F)F [Compound P-0037, 2-[2-fluoro-4-[2-(pyrazolo[1,5-a]pyridin-3-ylamino)pyrimidin-5-yl]phenyl]-N-[6-methoxy-5-(trifluoromethyl)-3-pyridyl]acetamide] | 0.0001 to 10 µM | 0.0001 to 10 µM | 0.0001 to 10 µM
17 | CC(C)(C)c1ccc(NC(=O)Cc2ccc(-c3cnc4[nH]cc(F)c4c3)cc2F)cn1 [Compound P-0043, N-(6-tert-butyl-3-pyridyl)-2-[2-fluoro-4-(3-fluoro-1H-pyrrolo[2,3-b]pyridin-5-yl)phenyl]acetamide] | 0.0001 to 10 µM | 0.0001 to 10 µM | 0.0001 to 10 µM
18 | O=C(Cc1ccc(-c2cnc3[nH]cc(F)c3c2)cc1F)Nc1cc(Cl)c(C2CC2)cn1 [Compound P-0044, N-(4-chloro-5-cyclopropyl-2-pyridyl)-2-[2-fluoro-4-(3-fluoro-1H-pyrrolo[2,3-b]pyridin-5-yl)phenyl]acetamide] | 0.0001 to 10 µM | 0.0001 to 10 µM | 0.0001 to 10 µM
